These are literature values, as cited in US6376509B2, “Melanocortin receptor agonists” (Merck & Co., Inc., priority 2000, dated 2002).

One data set concerns erectile dysfunction. To be noted: for duration of effect / onset of action: after an oral dose; for share of patients with adequate response: oral, men with erectile dysfunction.
For data set [1], the system named is psychogenic erectile dysfunction.

Take `Cc1ccc(N(CC2=NCCN2)c2cccc(O)c2)cc1` [phentolamine]: in the data set on erectile dysfunction, the duration of effect was 2 h, the onset of action is 5 to 30 min and the “share of patients with adequate response” value is 35-40%.

Turning to `CCCc1nn(C)c2c(=O)[nH]c(-c3cc(S(=O)(=O)N4CCN(C)CC4)ccc3OCC)nc12` [sildenafil], in the data set on erectile dysfunction, the duration of effect result is reported as “about 4 hours”, the onset of action was 30 to 60 min and the “share of patients with adequate response” value is listed as “about 70%”.

As to “Ac-Nle-c[Asp-His-DPhe-Arg-Trp-Lys]-NH2 [MT-II]”, the “absorption into the systemic circulation” value in data set [1] (in vivo, po) is “not absorbed into the systemic circulation”. In addition, the response rate in data set [1] (injected intramuscularly or subcutaneously, males with psychogenic erectile dysfunction) was 75%. Also, in data set [1] (subcutaneous injection), the duration of action result is “approximately 2.5 hours” and the “time to onset of erection” value was 10 to 20 min.
